# Target: T1, human PDE2A1 (Homo sapiens, UniProt O00408)
# T1 construct: GST; purchased BPS Bioscience (San Diego, Calif.) 60020; host or cells: insect cells
# Assay: IMAP FP PDE assay, human PDE2A1
# Format: biochemical
# Conditions: Lab B; read-out: Human PDE2 Ki (nM) Lab B
# In short: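 GST-tagged human PDE2A1 from insect cells; substrate 50 nM FAM-cAMP containing 1000 nM cGMP in Tris pH 7.2/MgCl2/DTT buffer, enzyme giving 20% conversion. 60 min at room temperature, IMAP binding reagent, fluorescence polarization read. Apparent Ki from FP readings using apparent KM 10,000 nM; ten-point 3-fold titrations.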
# T1 sequence (O00408 1-920 isoform O00408-2): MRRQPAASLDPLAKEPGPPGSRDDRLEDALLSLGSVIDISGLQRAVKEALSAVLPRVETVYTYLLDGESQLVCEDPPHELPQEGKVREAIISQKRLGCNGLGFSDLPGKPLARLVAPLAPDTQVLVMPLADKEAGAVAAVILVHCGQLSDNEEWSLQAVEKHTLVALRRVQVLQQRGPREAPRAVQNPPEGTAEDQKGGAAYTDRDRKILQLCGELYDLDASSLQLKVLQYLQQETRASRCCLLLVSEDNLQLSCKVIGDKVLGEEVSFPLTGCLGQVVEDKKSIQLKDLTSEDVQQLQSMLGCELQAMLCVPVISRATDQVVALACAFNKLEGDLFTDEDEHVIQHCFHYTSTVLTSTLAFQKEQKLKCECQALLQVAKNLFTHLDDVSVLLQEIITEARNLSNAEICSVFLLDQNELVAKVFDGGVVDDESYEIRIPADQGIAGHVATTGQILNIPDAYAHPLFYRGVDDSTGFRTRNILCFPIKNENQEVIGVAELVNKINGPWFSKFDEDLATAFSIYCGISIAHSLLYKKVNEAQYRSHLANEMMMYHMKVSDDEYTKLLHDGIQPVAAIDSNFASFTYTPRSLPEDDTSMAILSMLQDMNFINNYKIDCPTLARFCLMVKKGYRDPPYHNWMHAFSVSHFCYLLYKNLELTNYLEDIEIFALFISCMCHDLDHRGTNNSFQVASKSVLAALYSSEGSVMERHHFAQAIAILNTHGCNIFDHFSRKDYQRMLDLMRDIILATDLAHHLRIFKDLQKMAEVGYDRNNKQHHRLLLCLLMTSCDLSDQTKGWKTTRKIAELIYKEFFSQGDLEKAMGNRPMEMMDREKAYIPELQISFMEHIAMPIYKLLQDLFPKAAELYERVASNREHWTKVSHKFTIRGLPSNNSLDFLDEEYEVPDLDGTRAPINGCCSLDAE
row,Compound,Ki [nM]
1,"Cc1nc2c(c(C(=O)N3CCOCC3)nn2C(C)c2ccc(C(F)(F)F)cc2)c(=O)[nH]1 (single isomer, unassigned) [Example 270, (R)- or (S)-6-Methyl-3-(morpholine-4-carbonyl)-1-(1-(4-(trifluoromethyl)phenyl)ethyl)-1H-pyrazolo[3,4-d]pyrimidin-4(5H)-one]",> 2960
2,"Cc1nc2c(c(C(=O)N3CCOCC3)nn2C(C)c2ccc(C(F)(F)F)cc2)c(=O)[nH]1 (single isomer, unassigned) [Example 271, (S)- or (R)-6-Methyl-3-(morpholine-4-carbonyl)-1-(1-(4-(trifluoromethyl)phenyl)ethyl)-1H-pyrazolo[3,4-d]pyrimidin-4(5H)-one]",> 2960
3,"CC(=O)NCc1nn(C(C)c2ccc(C(F)(F)F)cc2)c2nc(C)[nH]c(=O)c12 (single isomer, unassigned) [Example 276]",~1520
4,"CC(=O)NCc1nn(C(C)c2ccc(C(F)(F)F)cc2)c2nc(C)[nH]c(=O)c12 (single isomer, unassigned) [Example 277]",~1300
5,"Cc1nc2c(c(OCC(F)(F)F)nn2C(C)c2ccc(C(F)(F)F)cc2)c(=O)[nH]1 (single isomer, unassigned) [Example 287]",375
6,"Cc1nc2c(c(OCC(F)(F)F)nn2C(C)c2ccc(C(F)(F)F)cc2)c(=O)[nH]1 (single isomer, unassigned) [Example 288]",350
7,"CC(=O)c1ccc(C(C)n2nc(CO)c3c(=O)[nH]c(C)nc32)cc1 (single isomer, unassigned) [Example 290]",> 2960
8,"CC(c1ccc(C(F)(F)F)cc1)n1nc(CO)c2c(=O)[nH]c(C3CC3)nc21 (single isomer, unassigned) [Example 299, (R)- or (S)-6-Cyclopropyl-3-(hydroxymethyl)-1-{1-[4-(trifluoromethyl)phenyl]ethyl}-1,5-dihydro-4H-pyrazolo[3,4-d]pyrimidin-4-one]",157
9,"CCc1nc2c(c(CO)nn2C(C)c2ccc(C(F)(F)F)cc2)c(=O)[nH]1 (single isomer, unassigned) [Example 302, (S)- or (R)-6-Ethyl-3-(hydroxymethyl)-1-{1-[4-(trifluoromethyl)phenyl]ethyl}-1,5-dihydro-4H-pyrazolo[3,4-d]pyrimidin-4-one]",116
10,"CCCc1nc2c(c(CO)nn2C(C)c2ccc(C(F)(F)F)cc2)c(=O)[nH]1 (single isomer, unassigned) [Example 304, (S)- or (R)-3-(Hydroxymethyl)-6-propyl-1-(1-(4-(trifluoromethyl)phenyl)ethyl)-1,5-dihydro-4H-pyrazolo[3,4-d]pyrimidin-4-one]",263
11,"CC(C)Cc1nc2c(c(CO)nn2C(C)c2ccc(C(F)(F)F)cc2)c(=O)[nH]1 (single isomer, unassigned) [Example 306, (S)- or (R)-3-(Hydroxy-methyl)-6-isobutyl-1-(1-(4-(trifluoromethyl)phenyl)ethyl)-1,5-dihydro-4H-pyrazolo[3,4-d]pyrimidin-4-one]",568
12,"CC(c1ccc(C(F)(F)F)cc1)n1nc(CO)c2c(=O)[nH]c(CC3CCCC3)nc21 (single isomer, unassigned) [Example 308, (S)- or (R)-6-(Cyclopentyl-methyl)-3-(hydroxymethyl)-1-(1-(4-(trifluoromethyl)phenyl)ethyl)-1,5-dihydro-4H-pyrazolo[3,4-d]pyrimidin-4-one]",329
13,"CC(c1ccc(C(F)(F)F)cc1)n1nc(CO)c2c(=O)[nH]c(CC3CC3)nc21 (single isomer, unassigned) [Example 309, (R)- or (S)-6-(Cyclopropyl-methyl)-3-(hydroxymethyl)-1-(1-(4-(trifluoromethyl)phenyl)ethyl)-1,5-dihydro-4H-pyrazolo[3,4-d]pyrimidin-4-one]",420
14,"CC(c1ccc(C(F)(F)F)cc1)n1nc(CO)c2c(=O)[nH]c(C3CCCO3)nc21 (single isomer, unassigned) [Example 311, (R,R)- or (S,S)- or (R,S)- or (S,R)-3-(Hydroxymethyl)-6-(tetrahydrofuran-2-yl)-1-(1-(4-(trifluoromethyl)-phenyl)ethyl)-1,5-dihydro-4H-pyrazolo[3,4-d]pyrimidin-4-one]",~1210
15,"CC(c1ccc(C(F)(F)F)cc1)n1nc(CO)c2c(=O)[nH]c(C3CCCO3)nc21 (single isomer, unassigned) [Example 312, (S,S)- or (R,S)- or (S,R)- or (R,R)-3-(Hydroxymethyl)-6-(tetrahydrofuran-2-yl)-1-(1-(4-(trifluoromethyl-)phenyl)ethyl)-1,5-dihydro-4H-pyrazolo[3,4-d]pyrimidin-4-one]",~1860
16,"COCc1nc2c(c(CO)nn2C(C)c2ccc(S(F)(F)(F)(F)F)cc2)c(=O)[nH]1 (single isomer, unassigned) [Example 317, (R)- or (S)-3-(Hydroxy-methyl)-6-(methoxy-methyl)-1-{1-[4-(pentafluoro-sulfanyl)-phenyl]ethyl}-1,5-dihydro-4H-pyrazolo[3,4-d]pyrimidin-4-one]",150
17,"Cc1nc2c(c(Br)nn2C(C)c2ccc(C(F)(F)F)cc2)c(=O)[nH]1 (single isomer, unassigned) [Example 324]",465

# Molecules with a lower Ki, results first:
row,Ki [nM],Compound
1,104,"CC(=O)c1ccc(C(C)n2nc(CO)c3c(=O)[nH]c(C)nc32)cc1 (single isomer, unassigned) [Example 291]"
2,2.8,"CC(c1ccc(C(F)(F)F)cc1)n1nc(CO)c2c(=O)[nH]c(C3CC3)nc21 (single isomer, unassigned) [Example 300, (S)- or (R)-6-Cyclopropyl-3-(hydroxymethyl)-1-{1-[4-(trifluoromethyl)phenyl]ethyl}-1,5-dihydro-4H-pyrazolo[3,4-d]pyrimidin-4-one]"
3,4.7,"CCc1nc2c(c(CO)nn2C(C)c2ccc(C(F)(F)F)cc2)c(=O)[nH]1 (single isomer, unassigned) [Example 301, (R)- or (S)-6-Ethyl-3-(hydroxymethyl)-1-{1-[4-(trifluoromethyl)phenyl]ethyl}-1,5-dihydro-4H-pyrazolo[3,4-d]pyrimidin-4-one]"
4,4.7,"CCCc1nc2c(c(CO)nn2C(C)c2ccc(C(F)(F)F)cc2)c(=O)[nH]1 (single isomer, unassigned) [Example 303, (R)- or (S)-3-(Hydroxymethyl)-6-propyl-1-(1-(4-(trifluoromethyl)phenyl)ethyl)-1,5-dihydro-4H-pyrazolo[3,4-d]pyrimidin-4-one]"
5,17,"CC(C)Cc1nc2c(c(CO)nn2C(C)c2ccc(C(F)(F)F)cc2)c(=O)[nH]1 (single isomer, unassigned) [Example 305, (R)- or (S)-3-(Hydroxy-methyl)-6-isobutyl-1-(1-(4-(trifluoromethyl)phenyl)ethyl)-1,5-dihydro-4H-pyrazolo-[3,4-d]pyrimidin-4-one]"
6,13,"CC(c1ccc(C(F)(F)F)cc1)n1nc(CO)c2c(=O)[nH]c(CC3CCCC3)nc21 (single isomer, unassigned) [Example 307, (R)- or (S)-6-(Cyclopentyl-methyl)-3-(hydroxymethyl)-1-(1-(4-(trifluoromethyl)-phenyl)ethyl)-1,5-dihydro-4H-pyrazolo[3,4-d]pyrimidin-4-one]"
7,11,"CC(c1ccc(C(F)(F)F)cc1)n1nc(CO)c2c(=O)[nH]c(CC3CC3)nc21 (single isomer, unassigned) [Example 310, (S)- or (R)-6-(Cyclopropyl-methyl)-3-(hydroxymethyl)-1-(1-(4-(trifluoromethyl)phenyl)ethyl)-1,5-dihydro-4H-pyrazolo[3,4-d]pyrimidin-4-one]"
8,22,"CC(c1ccc(C(F)(F)F)cc1)n1nc(CO)c2c(=O)[nH]c(C3CCCO3)nc21 (single isomer, unassigned) [Example 313, (R,S)- or (S,R)- or (R,R)- or (S,S)-3-(Hydroxymethyl)-6-(tetrahydrofuran-2-yl)-1-(1-(4-(trifluoromethyl)-phenyl)ethyl)-1,5-dihydro-4H-pyrazolo[3,4-d]pyrimidin-4-one]"
9,38,"CC(c1ccc(C(F)(F)F)cc1)n1nc(CO)c2c(=O)[nH]c(C3CCCO3)nc21 (single isomer, unassigned) [Example 314, (S,R)- or (R,R)- or (S,S)- or (R,S)-3-(Hydroxymethyl)-6-(tetrahydrofuran-2-yl)-1-(1-(4-(trifluoromethyl)-phenyl)ethyl)-1,5-dihydro-4H-pyrazolo[3,4-d]pyrimidin-4-one]"
10,3.3,"CC(c1ccc(S(F)(F)(F)(F)F)cc1)n1nc(CO)c2c(=O)[nH]c(C3CC3)nc21 (single isomer, unassigned) [Example 315, (R)- or (S)-6-Cyclopropyl-3-(hydroxymethyl)-1-{1-[4-(pentafluoro-sulfanyl)-phenyl]-ethyl}-1,5-dihydro-4H-pyrazolo[3,4-d]pyrimidin-4-one]"
11,72,"CC(c1ccc(S(F)(F)(F)(F)F)cc1)n1nc(CO)c2c(=O)[nH]c(C3CC3)nc21 (single isomer, unassigned) [Example 316, (S)- or (R)-6-Cyclopropyl-3-(hydroxymethyl)-1-{1-[4-(pentafluoro-sulfanyl)-phenyl]ethyl}-1,5-dihydro-4H-pyrazolo[3,4-d]pyrimidin-4-one]"
12,3.8,"COCc1nc2c(c(CO)nn2C(C)c2ccc(S(F)(F)(F)(F)F)cc2)c(=O)[nH]1 (single isomer, unassigned) [Example 318, (S)- or (R)-3-(Hydroxymethyl)-6-(methoxymethyl)-1-{1-[4-(pentafluorosulfanyl)phenyl]ethyl}-1,5-dihydro-4H-pyrazolo[3,4-d]pyrimidin-4-one]"
13,1.2,"Cc1nc2c(c([C@@H](C)CO)nn2[C@@H](C)c2ccc(C(F)(F)F)cc2)c(=O)[nH]1 (single isomer, unassigned) [Example 320]"
14,33,"Cc1nc2c(c([C@H](C)CO)nn2[C@@H](C)c2ccc(C(F)(F)F)cc2)c(=O)[nH]1 (single isomer, unassigned) [Example 321]"

# Reference: US10160762B2, “6-alkyl dihydropyrazolopyrimidinone compounds as PDE2 inhibitors” (Merck Sharp & Dohme Corp., priority 2015, dated 2018)
